Our source for the IC50 values is US7453000B2, “Substituted oxazolobenzoisothiazole dioxide derivatives method for production and use thereof” (Sanofi-Aventis Deutschland GmbH, priority 2004, dated 2008).

This experiment has as its target T1, human PTP1B (Homo sapiens, UniProt P18031).
T1 construct: without the carboxy-terminal hydrophobic region (corresponding to 1-299 aa); made in house; host or cells: Sf9 insect cells (Spodoptera frugiperda), baculovirus (Bac-to-Bac, pFASTBAC)
T1 sequence (P18031 1-299): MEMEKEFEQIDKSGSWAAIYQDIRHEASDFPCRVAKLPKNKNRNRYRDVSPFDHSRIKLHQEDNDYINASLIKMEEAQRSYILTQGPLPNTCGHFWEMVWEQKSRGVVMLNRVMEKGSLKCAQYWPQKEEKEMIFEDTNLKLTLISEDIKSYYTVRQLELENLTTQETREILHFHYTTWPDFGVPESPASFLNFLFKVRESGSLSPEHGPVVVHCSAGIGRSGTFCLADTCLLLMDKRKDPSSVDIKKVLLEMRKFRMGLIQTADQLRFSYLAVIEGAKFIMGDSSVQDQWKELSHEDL
Briefly: Enzymatic test system for detecting inhibition of a phosphatase (recombinant hPTP1B; phosphopeptide dephosphorylation / p-nitrophenyl phosphate cleavage). Conditions: inhibition of recombinant hPTP1B (1-299 aa, expressed in Sf9 cells); Table 2 does not say which substrate procedure (A phosphopeptide or B pNPP). It is filed as biochemical. As to the method: The activity of the compounds was tested as follows:
Enzymatic test systems for detecting inhibition of a phosphatase
The compounds of the formula I were tested for their phosphatase-inhibiting effect in an in vitro assay. The enzyme preparation and the performance of the assay was carried out as follows.
Obtaining the Enzyme Preparation:
• Sf9 cells (=Spodoptera frugiperda cell type; obtainable from invitrogen) are cultured in Grace's supplemented medium (Gibco-BRL) with 10% heat-inactivated fetal calf serum (Gibco-BRL) in spinner flasks at 28° C. in accordance with the protocol of Summers and Smith (A Manual for Methods for Baculoviruns Vectors and Insect Culture Procedures [Bulletin No. 15555]. Texas A & M University, Texas Agricultural Experiment Station, College Station, Tex., 1987). • Construction of recombinant Baculovirus transfer vectors: cDNA coding for the regulatory and catalytic domains of human PTP1B, but without the carboxy-terminal hydrophobic region (corresponding to 1-299 aa) was obtained by polymerase chain reaction via primers with attached cloning sites and suitable cDNA templates (obtainable for example from invitrogen) and then cloned into baculovirus expression vectors (Amersham Pharmacia Biotech.). The recombinant baculoviruses were prepared with the aid of the Bac-to-Bac baculovirus expression system (obtainable from Gibco-BRL). The gene was cloned into the pFASTBAC donor plasmid (obtainable from Life Technologies). The resulting plasmid was transformed into competent DH10BAC Escherichia coli cells (obtainable from Life Technologies). After transposition and antibiotic selection, the recombinant plasmid DNA was isolated from selected E. coli colonies and then used for the transfection of Sf9 insect cells. The virus particle in the supernatant medium was amplified three times up to a viral stock volume of 500 ml. B) Production of Recombinant Protein: • Baculovirus infection of a 500 ml spinner culture of Sf9 cells was essentially carried out as described by Summers and Smith (see above). Sf9 cells at a density of 1-3×10^6 cells/ml were pelleted by centrifugation at 300 g for 5 min, the supernatant was removed, and the cells were resuspended in a density of 1×10^7 cells/ml in a suitable recombinant viral stock (MOI 10). After careful shaking at room temperature for 1.5 h, fresh medium was added in order to achieve a cell density of 1×10^6 cells/ml. The cells were then cultured in suspension at 28° C. for suitable periods after postinfection. C) Cellular Fractionation and Complete Cell Extracts of Infected Sf9 Cells: • After the postinfection, aliquots were subjected to an analysis of protein expression by SDS-PAGE and Western blot analysis. The cellular fractionation was carried out as described (Cromlish, W. and Kennedy, B. Biochem. Pharmacol. 52: 1777-1785, 1996). Complete cell extracts were obtained from 1 ml aliquots of the infected Sf9 cells after certain times postinfection. The pelleted cells (300×g, 5 min) were washed once in phosphate-buffered saline (4° C.), resuspended in 50 μl of water and disrupted by repeated freezing/thawing. Protein concentrations were determined with the aid of the Bradford method and bovine serum albumin as standard. Assay Procedure: A) Dephosphorylation of a Phosphopeptide: • This assay is based on the release of phosphate from a consensus substrate peptide which is detected in the nanomolar concentration range by the malachite green/ammonium molybdate method (Lanzefta, P. A., Alvarez, L. J., Reinach, P. S., Candia, O. A. Anal Biochem. 100: 95-97, 1979) adapted for the microtiter plate format. The dodecatrisphosphopeptide TRDIYETDYYRK (Biotrend, Cologne) corresponds to amino acids 1142-1153 of the catalytic domain of the insulin receptor and is (auto)phosphorylated on tyrosine residues 1146, 1150 and 1151. […]
Take `O=S1(=O)Cc2cc(Nc3ncc(-c4cccc(Br)c4)o3)ccc2N1` [Example 2]: the IC50 came out at 12.6 µM. With `O=S1(=O)Cc2cc(Nc3ncc(-c4ccc(Br)s4)o3)ccc2N1` [Example 6] the figure was 9.44 µM; with `O=S1(=O)Cc2cc(Nc3ncc(-c4ccc(-c5ccc(Cl)cc5)cc4)o3)ccc2N1` [Example 5], 2.16 µM; with `O=S1(=O)Cc2cc(Nc3ncc(-c4ccc(C(F)(F)F)cc4)o3)ccc2N1` [Example 3], 15.7 µM.

As to `O=C(O)COc1ccc(-c2cnc(Nc3ccc4c(c3)CS(=O)(=O)N4)o2)cc1` [Example 8], the IC50 amounted to 290 µM. For `O=C(O)c1cc(-c2cnc(Nc3ccc4c(c3)CS(=O)(=O)N4)o2)ccc1O` [Example 7] the value was 162 µM; for `N#Cc1cccc(-c2cnc(Nc3ccc4c(c3)CS(=O)(=O)N4)o2)c1` [Example 1], 7.3 µM. For `CC(C)(C)c1cc(-c2cnc(Nc3ccc4c(c3)CS(=O)(=O)N4)o2)cc(C(C)(C)C)c1O` [Example 4] the value was 6.12 µM.

Usually IC50 stands for the midpoint of a concentration-inhibition curve.
